Our source for the inhibition and Ki values is PMC9312158, “Novel 1,2,3-Triazole-sulphadiazine-ZnO Hybrids as Potent Antimicrobial Agents against Carbapenem Resistant Bacteria” (Antibiotics, 2022).

The target in one test is NDM-1 (Klebsiella pneumoniae, UniProt C7C422). Description: In vitro MBLs inhibition assay with CENTA substrate, NDM-1. Format: biochemical. The settings on record: for inhibition at 5 µM: 5 µM compound, CENTA 70 µM. How it is done:
(§1) Assays of enzyme inhibition were measured in the absence and presence of 5 µM of compound 4a–c and their ZnO conjugated hybrids to determine their inhibitory activity (IMP1 and NDM-1). CENTA (70 µM), a chromogenic cephalosporin substrate, was employed. The chromophore […] is formed when MBLs hydrolyze CENTA, and its generation may be detected spectrophotometrically using a plate reader at = 405 nm (at pH 7.0, ε = 6400 M^−1 cm^−1). Assays of kinetics of the inhibition experiments were carried out in accordance with earlier research. Non-linear regression was used to examine the inhibition data.

The next test concerns the target IMP-1 (Serratia marcescens, UniProt P52699). Nature of the test: In vitro MBLs inhibition assay with CENTA substrate, IMP-1. Format: biochemical. Particulars: for inhibition at 5 µM: 5 µM compound, CENTA 70 µM, read-out: % Inhibition IPM-1 (5 µM). How it is done: as §1
Setting [1] is: inhibition constant for the competitive inhibition mode, read-out: NDM-1 Kic.
[2] abbreviates: inhibition constant for the uncompetitive inhibition mode, read-out: NDM-1 Kiuc.
Setting [3] is: inhibition constant for the competitive inhibition mode, read-out: IPM-1 Kic.
Where [4] appears, read: inhibition constant for the uncompetitive inhibition mode, read-out: IPM-1 Kiuc.

Each structure is given as a SMILES string. Like-named read-outs stand apart in the source and are kept apart here.

Sequence of NDM-1 (C7C422 29-270, looked up, species assumed): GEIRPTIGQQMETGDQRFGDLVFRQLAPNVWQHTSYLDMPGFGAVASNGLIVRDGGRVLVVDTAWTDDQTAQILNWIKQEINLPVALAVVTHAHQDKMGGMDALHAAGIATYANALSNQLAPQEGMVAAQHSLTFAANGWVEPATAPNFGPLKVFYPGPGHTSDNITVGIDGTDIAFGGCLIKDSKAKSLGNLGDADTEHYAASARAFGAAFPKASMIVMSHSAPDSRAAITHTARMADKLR
Sequence of IMP-1 (P52699 19-246, looked up, species assumed): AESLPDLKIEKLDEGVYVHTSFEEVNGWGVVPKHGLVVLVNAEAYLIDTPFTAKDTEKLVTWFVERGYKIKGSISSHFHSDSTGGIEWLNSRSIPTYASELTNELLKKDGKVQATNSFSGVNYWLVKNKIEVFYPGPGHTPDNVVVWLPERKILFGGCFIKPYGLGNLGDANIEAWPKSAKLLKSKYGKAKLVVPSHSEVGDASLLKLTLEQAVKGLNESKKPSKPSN

Regarding `O=S(=O)(Nc1ncccn1)c1ccc(-n2cc(CO)nn2)cc1` [Compound 3a], the values for the inhibition at 5 µM against NDM-1 and at IMP-1 were 71.2% and 75%, respectively. The Ki was 9.6 µM at NDM-1 (setting [1]), 6 µM at NDM-1 (setting [2]), 11.8 µM on IMP-1 (setting [3]) and 7.7 µM on IMP-1 (setting [4]).

On to `NC(N)=NS(=O)(=O)c1ccc(-n2cc(CO)nn2)cc1` [Compound 3c], for which the inhibition (usually the drop in the measured response relative to a control, in per cent) at 5 µM against NDM-1 is 64.3%; on IMP-1, 72.9%. For the same compound, the Ki at NDM-1 (setting [1]) is 8.5 µM; at NDM-1 (setting [2]), 3.9 µM; on IMP-1 (setting [3]) it was 10.9 µM; on IMP-1 (setting [4]), 5.1 µM.

Turning to `O=S(=O)(Nc1ccccn1)c1ccc(-n2cc(CO)nn2)cc1` [Compound 3b], the figures for the inhibition at 5 µM against NDM-1 and at IMP-1 were 68.7% and 75.4%, respectively. Moreover, the Ki on NDM-1 (setting [1]) was 9 µM; on NDM-1 (setting [2]), 6 µM; at IMP-1 (setting [3]) it was 11.4 µM; at IMP-1 (setting [4]), 7.6 µM.
